Source: PubChem BioAssay (NCI)
Values joined by “and” are separate entries in the source; they are usually repeats but may differ in a detail not shown here. Identical values can stand only once.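 A five-concentration, 48-hour dose response in 96-well plates underlies each endpoint, interpolated linearly between surrounding concentrations. GI50 is the concentration that inhibits growth by half. Definition used: TGI = concentration required for complete inhibition of growth.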

How the values were obtained:
Assay in all cases: inhibition of tumour cell growth, NCI panel, 48 h
HCT-15 colon = test system: HCT-15 colon
HS 578T breast = test system: HS 578T breast
M14 melanoma = test system: M14 melanoma
MDA-MB-231 breast = test system: MDA-MB-231 breast
OVCAR-5 ovarian = test system: OVCAR-5 ovarian
RXF 393 renal = test system: RXF 393 renal
SF-295 CNS = test system: SF-295 CNS
SK-MEL-2 melanoma = test system: SK-MEL-2 melanoma
SNB-19 CNS = test system: SNB-19 CNS
UACC-257 melanoma = test system: UACC-257 melanoma
UO-31 renal = test system: UO-31 renal

| Compound | TGI (HCT-15 colon) [µM] | TGI (HS 578T breast) [µM] | TGI (M14 melanoma) | TGI (MDA-MB-231 breast) [µM] | TGI (OVCAR-5 ovarian) [µM] | TGI (RXF 393 renal) [µM] | TGI (SF-295 CNS) [µM] | TGI (SK-MEL-2 melanoma) [µM] | TGI (SNB-19 CNS) [µM] | TGI (UACC-257 melanoma) [µM] | TGI (UO-31 renal) [µM] | GI50 (HCT-15 colon) | GI50 (M14 melanoma) | GI50 (SF-295 CNS) |
| --- | --- | --- | --- | --- | --- | --- | --- | --- | --- | --- | --- | --- | --- | --- |
| c1ccc(C2=NC3(CCCCC3)N(c3nc4ccccc4s3)N2)nc1 | > 100 | > 100 | 59.2 µM | 64.7 | > 100 | 57.7 | > 100 | 42.6 | > 100 | 43.4 | > 100 |  |  |  |
| O=C(CP(c1ccccc1)c1ccccc1)c1cccc(C(=O)CP(c2ccccc2)c2ccccc2)c1 | > 100 | > 100 | > 100 µM | > 100 | > 100 | > 100 | > 100 | > 100 | > 100 | > 100 | 50.8 |  |  |  |
| O=c1[nH]c(=O)n(C2CC(O)C(CO)O2)cc1I (stereo not given) | > 100 | > 100 | > 100 µM | > 100 | > 100 | > 100 | > 100 | > 100 | > 100 | > 100 | > 100 |  |  |  |
| CC(C)(C)OC(=O)CN1CCNCCNCC1 | > 100 | > 100 | > 100 µM | > 100 | > 100 | > 100 | > 100 | > 100 | > 100 | > 100 | > 100 |  |  |  |
| O=C1NC(N/N=C\C(O)C(O)C(O)CO)=N/C1=C/c1ccccc1 (stereo not given) | > 100 | > 100 | > 100 µM and 76.9 µM | > 100 | > 100 | > 100 | > 100 | > 100 | > 100 | > 100 | > 100 | > 100 µM and 35.5 µM | > 100 µM and 30.4 µM | > 100 µM and 38.2 µM |
| Cc1ccc(C)n1-c1ccccc1C1SCCCS1 | > 100 | > 100 | > 100 µM | > 100 | > 100 | > 100 | > 100 | > 100 | > 100 | > 100 | > 100 |  |  |  |
| CCOc1cc2c(cc1O)/C(=N\N)C[C@@H]1[C@@H]2CC[C@]2(C)[C@@H](O)CC[C@@H]12 | 16.8 | > 27 | > 41.7 µM | > 42.9 | > 86 | 36.2 | 6.15 | 99.5 | > 100 | > 50.9 | > 100 |  |  |  |
